From patent publication US11458132B2, “Quinolin-2(1H)-one inhibitors of Late SV40 Factor” (TRUSTEES OF BOSTON UNIVERSITY, priority 2020, dated 2022)

How the values were obtained:
FH-B cells = test: Microtubule sedimentation assay; type: cell-based, human; conditions: 4 μM FQI1 (15- and 30-minute pellets); 1 μM nocodazole or taxol 30 minutes
Method: (§1) Cell lysate preparation: For microtubule sedimentation assays, cells were treated as indicated in the figure legends, washed with PBS and incubated in 250 μl of microtubule sedimentation assay lysis buffer (100 mM PIPES pH 6.8, 2 M glycerol, 2 mM EGTA, 5 mM MgCl2, 0.1% Triton X-100) supplemented with 1 μM taxol, protease inhibitor cocktail (1:200, Abcam, ab201111) and phosphatase inhibitor cocktail (1:100, Abcam, ab201115) for 20 minutes at 37° C. Two hundred μl of scraped lysate was centrifuged at 21,000×g for 10 minutes at room temperature. Supernatants were saved as soluble fractions. Pellets were resuspended in 200 μl RIPA buffer (50 mM Tris HCl pH 8.0, 150 mM NaCl, 1% IGEPAL CA630, 0.05% deoxycholic acid) supplemented with 1.05% SDS, protease inhibitor cocktail (1:200) and phosphatase inhibitor cocktail (1:100) and incubated at 100° C. for 15 minutes. Pellet suspensions were centrifuged as before and supernatants were saved as pellet fractions.
(§2) Gel electrophoresis and immunoblotting: Microtubule sedimentation fractions and MLC2 analysis samples were separated by electrophoresis through tris-glycine and tricine polyacrylamide gels, respectively, which were transferred to PVDF membranes. Membranes with microtubule sedimentation fractions and MLC2 analysis samples were blocked in 5% milk in TBST and in 5% BSA in TBST, respectively. After overnight incubation with primary antibody at 4° C., the membranes were washed and incubated with secondary antibody for 1 hour at room temperature. Primary antibodies included anti-α-tubulin (1:2,000, Thermo Fisher Scientific, PA529444), anti-acetylated tubulin (1:1,000, Sigma-Aldrich, T7451), anti-phospho MYL9 (1:200, Thermo Fisher Scientific, PA517727), and anti-β-actin (1:5,000, Sigma-Aldrich, A1978). Secondary antibodies included Goat anti-Rabbit HRP (Thermo Fisher Scientific, 31460; 1:10,000 for anti-α-tubulin; 1:5,000 for anti-phospho MYL9), and Goat anti-Mouse HRP (Thermo Fisher Scientific, 62-6520; 1:5,000 for anti-acetylated tubulin; 1:10,000-1:20,000 for anti-β-actin). Membranes were placed into Pierce™ ECL Western Blotting Substrate (Thermo Fisher Scientific, 32106). Autoradiography film was exposed to each membrane for various times to ensure acquisition of non-saturated exposures. Band intensities were quantified from scanned films by densitometry using ImageJ.

RPE cells = test: Microtubule sedimentation assay; type: cell-based; conditions: 4 μM FQI1 (15- and 30-minute pellets); 1 μM nocodazole or taxol 30 minutes
Method: as §1, §2

[1] = system: RhoA/ROCK pathway in FH-B cells; test: Phospho-MLC2 immunoblot (RhoA/ROCK pathway); type: cell-based, human; conditions: 1 μM taxol 30 minutes, then 4 μM FQI1 10 minutes
Method: For analysis of phosphorylated MLC2, FH-B cells were treated as indicated in the figure legend, washed with PBS and incubated for 5 minutes in lysis buffer (50 mM Tris-HCl pH 8.0, 50 mM NaF, 5 mM MgCl2, 150 mM NaCl, 1% Triton X-100) supplemented with Tricine Sample Buffer (Bio-rad, 1610739), protease inhibitor cocktail (1:200), phosphatase inhibitor cocktail (1:100), and 1% ([…]. Lysates were incubated at 100° C. for 15 minutes and centrifuged at 21,000×g for 10 minutes prior to SDS-PAGE.
as §2, with “Secondary antibodies included Goat anti-Rabbit HRP (Thermo Fisher Scientific, 31460; 1:10,000 for anti-α-tubulin; 1:5,000 for anti-phospho MYL9), and Goat anti-Mouse HRP (Thermo Fisher Scientific, 62-6520; 1:5,000 for anti-acetylated tubulin; 1:10,000-1:20,000 for anti-β-actin). Membranes were placed into Pierce™ ECL Western Blotting Substrate (Thermo Fisher Scientific, 32106). Autoradiography film was exposed to each membrane for various times to ensure acquisition of non-saturated exposures.” left out

colorectal cancer tumor = test: Colorectal cancer tumor size and tumor tissue, FIGS. 22-24; type: in vivo, mouse; conditions: treated versus control

Row | Structure (SMILES) | microtubule stability and α-tubulin acetylation in the microtubule fraction (FH-B cells) | microtubule stability and α-tubulin acetylation in the microtubule fraction (RPE cells) | FQI1-induced increase in MLC2 phosphorylation after taxol preincubation [1] | stained tumor tissue, microscope images (colorectal cancer tumor)
1 | CC(=O)O[C@H]1C(=O)[C@@]2(C)[C@H]([C@H](OC(=O)c3ccccc3)[C@]3(O)C[C@H](OC(=O)[C@H](O)[C@@H](NC(=O)c4ccccc4)c4ccccc4)C(C)=C1C3(C)C)[C@]1(OC(C)=O)CO[C@@H]1C[C@@H]2O [taxol] | stabilizes and hyperacetylates microtubules | stabilizes and hyperacetylates microtubules | abrogated | 
2 | CC(C)COc1cc(N(C)C)ccc1C1CC(=O)Nc2cc3c(cc21)OCO3 (stereo not shown) [FQI-234, 8-(4-(dimethylamino)-2-isobutoxyphenyl)-7,8-dihydro-[1,3]dioxolo[4,5-g]quinolin-6(5H)-one] |  |  |  | more organized, interstitium and differentiated tumor
